The data set deals with HeLa cells. Briefly: Cell cycle assay in HeLa cells. The class given is cell-based, human. Conditions: for % cells aneuploid / % cells in cell cycle phase G1 / % cells in cell cycle phase G2/M / % cells in cell cycle phase S / % cells in cell cycle phase subG1 / % cells in cell cycle phase: G1 / % cells in cell cycle phase: G2/M / % cells in cell cycle phase: S / % cells in cell cycle phase: aneuploid / % cells in cell cycle phase: subG1 / % cells in cell cycle phase aneuploid: HeLa cells.

[1] abbreviates: 150 nM oligomeric compound, 24 hours, relative to untreated control (UTC = 100).
Where [2] appears, read: 150 nM oligomeric compound, 48 hours after treatment, relative to untreated control (UTC=100).
[3] abbreviates: 150 nM, 48 hours, relative to untreated control.
[4] abbreviates: 25 nM, 48 hours, percentage of cells in phase, average of replicates.
Where [5] appears, read: 50 nM, 48 hours, percentage of cells in phase, average of replicates.
The mark [6] stands for this setting: 100 nM, 48 hours, percentage of cells in phase, average of replicates.
The mark [7] stands for this setting: 150 nM, 48 hours, percentage of cells in phase, average of replicates.

Values joined by “and” are separate entries in the source; they are usually repeats but may differ in a detail not shown here. Identical values can stand only once. In the oligonucleotide strings, read from the 5' end, every base follows the letter of its sugar. An asterisk marks phosphorothioate; unmarked linkages are phosphodiester. Other units and linkages are bracketed, terminal groups are in braces. A string of capitals states the bases alone. e = 2'-O-(2-methoxyethyl) (MOE); [5mC] = 5-methylcytosine; d = 2'-deoxy (DNA)

As for “327896 (antisense eA*e[5mC]*eA*eG*eT*eT*e[5mC]*eT*eT*e[5mC]*eA*eA*e[5mC]*eT*eG*eG*e[5mC]*eA*eG*e[5mC]*eT*eT) [compound 327896]”, under setting [1], the “% cells aneuploid” value worked out at 65%, the “% cells in cell cycle phase G1” value is given as 83%, the “% cells in cell cycle phase G2/M” value is reported as 128% and the “% cells in cell cycle phase S” value was 103%. Moreover, the “% cells in cell cycle phase subG1” value under setting [1] turned out to be 121%. Moreover, under setting [2], the “% cells in cell cycle phase: G1” value is given as 55%, the “% cells in cell cycle phase: G2/M” value worked out at 194%, the “% cells in cell cycle phase: S” value is 140% and the “% cells in cell cycle phase: aneuploid” value came out at 66%. Also, under setting [2], the “% cells in cell cycle phase: subG1” value stood at 886%. Besides, under setting [3], the “% cells in cell cycle phase G1” value came to 103%, the “% cells in cell cycle phase G2/M” value came out at 106%, the “% cells in cell cycle phase S” value was found to be 94% and the “% cells in cell cycle phase aneuploid” value is 144%. In addition, under setting [3], the “% cells in cell cycle phase subG1” value is listed as 95%.
As to “327902 (antisense eG*eG*e[5mC]*eT*eG*eT*e[5mC]*eA*eA*eT*eT*e[5mC]*eA*eT*eA*eG*eG*eT*e[5mC]*eA*eG) [compound 327902]”, the “% cells in cell cycle phase: G2/M” value (25 nM, 48 hours) is 19%. Under setting [4], the “% cells in cell cycle phase: G1” value is 57%, the “% cells in cell cycle phase: S” value is reported as 23%, the “% cells in cell cycle phase: aneuploid” value amounted to 13% and the “% cells in cell cycle phase: subG1” value stood at 1.6%. Further, under “50 nM, 48 hours”, the “% cells in cell cycle phase: G2/M” value was 20%. Besides, under setting [5], the “% cells in cell cycle phase: G1” value is 51%, the “% cells in cell cycle phase: S” value was 30%, the “% cells in cell cycle phase: aneuploid” value turned out to be 14% and the “% cells in cell cycle phase: subG1” value amounted to 2.4%. Where the note is “100 nM, 48 hours”, the “% cells in cell cycle phase: G2/M” value is 27%. Besides, under setting [6], the “% cells in cell cycle phase: G1” value amounted to 43%, the “% cells in cell cycle phase: S” value turned out to be 30%, the “% cells in cell cycle phase: aneuploid” value was 11% and the “% cells in cell cycle phase: subG1” value is 3.1%. Besides, under setting [1], the “% cells aneuploid” value is 66% and 98%; the “% cells in cell cycle phase G1” value was 57% and 44%; the “% cells in cell cycle phase G2/M” value is 176% and 163%; the “% cells in cell cycle phase S” value is 106% and 121%. In addition, the “% cells in cell cycle phase subG1” value under setting [1] is 178% and 175%. Also, under setting [2], the “% cells in cell cycle phase: G1” value was 39% and 44%; the “% cells in cell cycle phase: G2/M” value was 208% and 205%; the “% cells in cell cycle phase: S” value was 171% and 166%; the “% cells in cell cycle phase: aneuploid” value was 81% and 87%. Besides, the “% cells in cell cycle phase: G2/M” value (150 nM, 48 hours) was 28%. Under setting [3], the “% cells in cell cycle phase G1” value is on record as 108%, the “% cells in cell cycle phase G2/M” value amounted to 93%, the “% cells in cell cycle phase S” value stood at 96% and the “% cells in cell cycle phase aneuploid” value came to 162%. For the same substance, the “% cells in cell cycle phase subG1” value under setting [3] is 94%. For the same substance, under setting [7], the “% cells in cell cycle phase: G1” value is 36%, the “% cells in cell cycle phase: S” value is on record as 36%, the “% cells in cell cycle phase: aneuploid” value is recorded as 12% and the “% cells in cell cycle phase: subG1” value is listed as 6.3%.
Turning to “327907 (antisense eA*eG*e[5mC]*e[5mC]*eT*eA*eT*e[5mC]*e[5mC]*eT*eG*eG*eA*eT*eT*eA*e[5mC]*eT*eT*eG*eA*eA) [compound 327907]”, under setting [1], the “% cells aneuploid” value was 75%, the “% cells in cell cycle phase G1” value is 119%, the “% cells in cell cycle phase G2/M” value is recorded as 111% and the “% cells in cell cycle phase S” value is 77%. Also, under setting [1], the “% cells in cell cycle phase subG1” value is reported as 224%. Also, under setting [2], the “% cells in cell cycle phase: G1” value came to 92%, the “% cells in cell cycle phase: G2/M” value is 115%, the “% cells in cell cycle phase: S” value is recorded as 111% and the “% cells in cell cycle phase: aneuploid” value came to 94%. In addition, under setting [2], the “% cells in cell cycle phase: subG1” value was found to be 116%.
“328382 (e[5mC]*eA*eG*eA*e[5mC]*dT*d[5mC]*d[5mC]*d[5mC]*dA*dA*d[5mC]*dT*dG*dA*e[5mC]*e[5mC]*eA*eG*eA) [compound 328382]”: under setting [1], the “% cells in cell cycle phase G1” value is 118% and 102%; the “% cells in cell cycle phase G2/M” value was 116% and 144%; the “% cells in cell cycle phase S” value is 76% and 80%. Under setting [2], the “% cells in cell cycle phase: G1” value was 102% and 83%; the “% cells in cell cycle phase: G2/M” value is 103% and 120%; the “% cells in cell cycle phase: S” value is 92% and 122%; the “% cells in cell cycle phase: aneuploid” value is 109% and 133%.
For the substance “ACTTTCGGTTATCTAGCTTTA [ISIS 327892] (chemistry not given here) [uniform 2′-MOE PS; targets mir-131-2/mir-9]”, the “phase of the cell cycle in which cells arrest or delay” value (HeLa, 150 nM, 48 hours) was “G2/M- and S-phases”.
With “327904 (antisense eA*e[5mC]*eT*e[5mC]*eA*e[5mC]*e[5mC]*eG*eA*e[5mC]*eA*eG*e[5mC]*eG*eT*eT*eG*eA*eA*eT*eG*eT*eT) [compound 327904]”, under setting [1], the “% cells aneuploid” value stood at 89%, the “% cells in cell cycle phase G1” value came out at 99%, the “% cells in cell cycle phase G2/M” value stood at 99% and the “% cells in cell cycle phase S” value is given as 102%. The “% cells in cell cycle phase subG1” value under setting [1] was 114%. Under setting [2], the “% cells in cell cycle phase: G1” value worked out at 87%, the “% cells in cell cycle phase: G2/M” value was determined as 114%, the “% cells in cell cycle phase: S” value was 126% and the “% cells in cell cycle phase: aneuploid” value was found to be 80%. Moreover, the “% cells in cell cycle phase: subG1” value under setting [2] is 116%.
“327877 (antisense e[5mC]*eG*e[5mC]*e[5mC]*eA*eA*eT*eA*eT*eT*eT*eA*e[5mC]*eG*eT*eG*e[5mC]*eT*eG*e[5mC]*eT*eA) [compound 327877]”: under setting [1], the “% cells aneuploid” value came out at 62%, the “% cells in cell cycle phase G1” value was determined as 107%, the “% cells in cell cycle phase G2/M” value was 159% and the “% cells in cell cycle phase S” value is 66%. Besides, the “% cells in cell cycle phase subG1” value under setting [1] worked out at 154%. Also, under setting [2], the “% cells in cell cycle phase: G1” value was determined as 59%, the “% cells in cell cycle phase: G2/M” value was found to be 168%, the “% cells in cell cycle phase: S” value is reported as 152% and the “% cells in cell cycle phase: aneuploid” value is listed as 80%. Further, the “% cells in cell cycle phase: subG1” value under setting [2] stood at 755%.
As to “328111 (antisense eT*e[5mC]*e[5mC]*eG*eA*eG*eT*e[5mC]*eG*eG*eA*eG*eG*eA*eG*eG*eA*eG*eG*eA*eA) [compound 328111]”, under setting [1], the “% cells aneuploid” value is 50%, the “% cells in cell cycle phase G1” value is reported as 127%, the “% cells in cell cycle phase G2/M” value worked out at 99% and the “% cells in cell cycle phase S” value amounted to 75%. The “% cells in cell cycle phase subG1” value under setting [1] turned out to be 62%. Moreover, under setting [2], the “% cells in cell cycle phase: G1” value stood at 84%, the “% cells in cell cycle phase: G2/M” value is 119%, the “% cells in cell cycle phase: S” value worked out at 126% and the “% cells in cell cycle phase: aneuploid” value amounted to 90%. Under setting [2], the “% cells in cell cycle phase: subG1” value is given as 371%.
Turning to “328362 (eT*eG*eT*eG*eT*dT*dT*dT*d[5mC]*dT*dG*dA*d[5mC]*dT*d[5mC]*eA*eG*eT*e[5mC]*eA) [compound 328362]”, under setting [1], the “% cells aneuploid” value stood at 66%, the “% cells in cell cycle phase G1” value was 101%, the “% cells in cell cycle phase G2/M” value was 126% and the “% cells in cell cycle phase S” value is on record as 87%. For the same substance, the “% cells in cell cycle phase subG1” value under setting [1] was 114%. For the same substance, under setting [2], the “% cells in cell cycle phase: G1” value was found to be 96%, the “% cells in cell cycle phase: G2/M” value worked out at 108%, the “% cells in cell cycle phase: S” value came to 104% and the “% cells in cell cycle phase: aneuploid” value turned out to be 97%. Under setting [2], the “% cells in cell cycle phase: subG1” value is 87%.

Values taken from patent US8178506B2, “Oligomeric compounds and compositions for use in modulation of small non-coding RNAs” (Regulus Therapeutics Inc., priority 2003, dated 2012).
